Patent US20140328930A1, “Pharmaceutical Compositions” (Alpharma Pharmaceuticals, LLC, priority 2007, published 2014)
Structures can show the parent of a compound that is named as a salt.

What was measured:
[1] = cited from earlier work
[2] = clinical; settings: human, in vivo, 2.4 mg
[3] = single dose 2.4 mg naltrexone, fasted

Compound: O=C1CC[C@@]2(O)[C@H]3Cc4ccc(O)c5c4[C@@]2(CCN3CC2CC2)[C@H]1O5 [naltrexone]
- Protein binding ([1]; in vivo): approximately 21%
- Oral bioavailability ([1]; oral): 5-40%

Compound: O=C1CC[C@@]2(O)[C@H]3Cc4ccc(O)c5c4[C@@]2(CCN3CC2CC2)[C@H]1O5 [Naltrexone HCl Solution]
- Tmax [2]: 1.13 h
- concentration at 0 h [2]: 0 ng/mL
- concentration at 0.5 h [2]: 0.455 ng/mL
- concentration at 1 h [2]: 0.629 ng/mL
- concentration at 2 h [2]: 0.465 ng/mL
- concentration at 3 h [2]: 0.286 ng/mL
- concentration at 4 h [2]: 0.182 ng/mL
- concentration at 5 h [2]: 0.133 ng/mL
- concentration at 6 h [2]: 0.0957 ng/mL
- concentration at 8 h [2]: 0.0518 ng/mL
- concentration at 10 h [2]: 0.0287 ng/mL
- concentration at 12 h [2]: 0.0205 ng/mL
- concentration at 16 h [2]: 0.00996 ng/mL
- concentration at 24 h [2]: 0.00316 ng/mL
- concentration at 36 h [2]: 0.000607 ng/mL
- concentration at 48 h [2]: 0 ng/mL
- concentration at 60 h [2]: 0 ng/mL
- concentration at 72 h [2]: 0 ng/mL
- concentration at 84 h [2]: 0 ng/mL
- concentration at 96 h [2]: 0 ng/mL
- concentration at 120 h [2]: 0 ng/mL
- AUC(0-t) ([2]; Naltrexone AUC0-t, Mean, single dose 2.4 mg naltrexone, fasted): 2.2 ng·h/mL
- AUC(0-inf) ([2]; Naltrexone AUCinf, Mean, single dose 2.4 mg naltrexone, fasted): 2.24 ng·h/mL
- Cmax ([2]; Naltrexone Cmax, Mean, single dose 2.4 mg naltrexone, fasted): 0.689 ng/mL
- AUC(0-inf) ([2]; Naltrexone ln(AUCinf), Geometric Mean, Least Squares Mean of log-transformed values): 1.99 ng·h/mL
- AUC(0-t) ([2]; Naltrexone ln(AUClast), Geometric Mean, Least Squares Mean of log-transformed values): 1.95 ng·h/mL
- Cmax ([2]; Naltrexone ln(Cmax), Geometric Mean, Least Squares Mean of log-transformed values): 0.58 ng/mL
- Naltrexone Tlast, Mean [3]: 20.00 h
- Naltrexone λz, Mean [3]: 0.2013 h⁻¹
